According to patent US12492188B2, “1H-benzo[D]imidazole derivatives as TLR9 inhibitors for the treatment of fibrosis” (BRISTOL-MYERS SQUIBB COMPANY, priority 2020, dated 2025):
Read-outs that look alike come from different tables or passages of the source.

Assays:
Assay type in all cases: cell-based
human TLR9 = target: T1, human TLR9 (Homo sapiens, UniProt Q9NR96); assay: TLR9 inhibition reporter assay (HEK-Blue cells, secreted embryonic alkaline phosphatase reporter)
T1 construct: host or cells: HEK-Blue cells (HEK293-derived reporter line)
T1 sequence (Q9NR96 26-1032): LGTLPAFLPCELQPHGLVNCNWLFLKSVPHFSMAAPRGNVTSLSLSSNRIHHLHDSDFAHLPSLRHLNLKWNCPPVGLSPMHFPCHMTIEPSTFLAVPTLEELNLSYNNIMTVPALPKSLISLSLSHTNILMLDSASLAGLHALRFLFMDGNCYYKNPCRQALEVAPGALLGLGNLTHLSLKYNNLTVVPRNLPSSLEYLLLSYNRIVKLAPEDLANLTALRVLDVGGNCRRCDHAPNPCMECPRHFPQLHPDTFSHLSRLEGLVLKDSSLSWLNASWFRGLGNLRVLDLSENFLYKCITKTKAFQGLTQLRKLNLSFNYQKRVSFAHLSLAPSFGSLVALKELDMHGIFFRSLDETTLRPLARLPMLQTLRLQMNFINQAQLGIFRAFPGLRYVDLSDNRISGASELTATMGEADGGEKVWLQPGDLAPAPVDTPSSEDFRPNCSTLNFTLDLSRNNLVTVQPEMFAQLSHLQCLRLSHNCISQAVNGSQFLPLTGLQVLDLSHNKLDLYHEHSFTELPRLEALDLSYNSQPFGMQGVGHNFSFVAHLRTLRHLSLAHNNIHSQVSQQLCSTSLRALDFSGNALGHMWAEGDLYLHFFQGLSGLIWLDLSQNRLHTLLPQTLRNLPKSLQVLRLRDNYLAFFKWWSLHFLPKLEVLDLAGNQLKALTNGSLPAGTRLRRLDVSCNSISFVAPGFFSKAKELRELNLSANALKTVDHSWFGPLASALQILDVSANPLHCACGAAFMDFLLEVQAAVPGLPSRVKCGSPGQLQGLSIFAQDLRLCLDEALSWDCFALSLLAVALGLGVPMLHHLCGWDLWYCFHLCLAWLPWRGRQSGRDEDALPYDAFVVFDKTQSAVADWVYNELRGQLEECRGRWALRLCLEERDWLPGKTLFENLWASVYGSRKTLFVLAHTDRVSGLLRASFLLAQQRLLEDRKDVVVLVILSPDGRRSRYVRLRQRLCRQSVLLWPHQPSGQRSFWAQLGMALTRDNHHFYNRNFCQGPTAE
How it was run: (§1)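 Inhibitors are tested in dose response (0.05 nM–50 μM) on HEK-Blue reporter cells expressing human TLR7, TLR8 or TLR9. After 30 min at room temperature, each line is stimulated with its own agonist (gardiquimod 7.5 μM, R848 15.9 μM or ODN2006 5 nM, final) and SEAP is measured 22 h later.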

human TLR7 = target: T2, human TLR7 (Homo sapiens, UniProt Q9NYK1); assay: TLR7 inhibition reporter assay (HEK-Blue cells, secreted embryonic alkaline phosphatase reporter); conditions: HEK-Blue cells overexpressing human TLR7, stimulated with gardiquimod 7.5 μM; read-out: TLR 7 IC50
T2 construct: host or cells: HEK-Blue cells (HEK293-derived reporter line)
T2 sequence (Q9NYK1 27-1049): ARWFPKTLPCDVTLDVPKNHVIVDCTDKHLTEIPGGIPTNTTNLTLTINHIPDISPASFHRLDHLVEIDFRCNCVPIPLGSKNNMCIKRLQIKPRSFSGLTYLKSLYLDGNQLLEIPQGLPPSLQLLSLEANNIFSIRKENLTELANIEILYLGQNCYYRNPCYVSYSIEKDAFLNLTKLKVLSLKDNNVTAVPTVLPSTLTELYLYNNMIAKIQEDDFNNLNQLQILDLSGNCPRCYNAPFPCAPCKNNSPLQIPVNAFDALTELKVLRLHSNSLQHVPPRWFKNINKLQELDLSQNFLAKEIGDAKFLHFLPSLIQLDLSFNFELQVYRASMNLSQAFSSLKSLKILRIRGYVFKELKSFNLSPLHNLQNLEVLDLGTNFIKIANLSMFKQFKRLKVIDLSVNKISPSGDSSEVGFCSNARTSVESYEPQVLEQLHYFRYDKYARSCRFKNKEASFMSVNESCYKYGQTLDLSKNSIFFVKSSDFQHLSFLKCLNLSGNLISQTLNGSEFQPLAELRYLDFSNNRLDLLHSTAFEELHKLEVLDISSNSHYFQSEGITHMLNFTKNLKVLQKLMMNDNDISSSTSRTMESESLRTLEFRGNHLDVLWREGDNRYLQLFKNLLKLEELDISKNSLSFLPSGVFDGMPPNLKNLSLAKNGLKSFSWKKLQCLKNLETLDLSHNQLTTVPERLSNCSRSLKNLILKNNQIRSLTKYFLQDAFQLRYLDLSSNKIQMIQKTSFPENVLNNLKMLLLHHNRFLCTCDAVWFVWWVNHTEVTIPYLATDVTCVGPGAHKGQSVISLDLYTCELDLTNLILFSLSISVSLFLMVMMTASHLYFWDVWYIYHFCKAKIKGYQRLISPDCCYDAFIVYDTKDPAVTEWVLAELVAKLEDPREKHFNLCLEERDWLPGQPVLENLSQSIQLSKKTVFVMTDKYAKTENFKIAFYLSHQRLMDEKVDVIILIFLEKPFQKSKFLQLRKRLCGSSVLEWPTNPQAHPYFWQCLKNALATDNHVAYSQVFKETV
How it was run: as §1

human TLR8 = target: T3, human TLR8 (Homo sapiens, UniProt Q9NR97); assay: TLR8 inhibition reporter assay (HEK-Blue cells, secreted embryonic alkaline phosphatase reporter); conditions: HEK-Blue cells overexpressing human TLR8, stimulated with R848 15.9 μM; read-out: TLR 8 IC50
T3 construct: host or cells: HEK-Blue cells (HEK293-derived reporter line)
T3 sequence (Q9NR97 27-1041): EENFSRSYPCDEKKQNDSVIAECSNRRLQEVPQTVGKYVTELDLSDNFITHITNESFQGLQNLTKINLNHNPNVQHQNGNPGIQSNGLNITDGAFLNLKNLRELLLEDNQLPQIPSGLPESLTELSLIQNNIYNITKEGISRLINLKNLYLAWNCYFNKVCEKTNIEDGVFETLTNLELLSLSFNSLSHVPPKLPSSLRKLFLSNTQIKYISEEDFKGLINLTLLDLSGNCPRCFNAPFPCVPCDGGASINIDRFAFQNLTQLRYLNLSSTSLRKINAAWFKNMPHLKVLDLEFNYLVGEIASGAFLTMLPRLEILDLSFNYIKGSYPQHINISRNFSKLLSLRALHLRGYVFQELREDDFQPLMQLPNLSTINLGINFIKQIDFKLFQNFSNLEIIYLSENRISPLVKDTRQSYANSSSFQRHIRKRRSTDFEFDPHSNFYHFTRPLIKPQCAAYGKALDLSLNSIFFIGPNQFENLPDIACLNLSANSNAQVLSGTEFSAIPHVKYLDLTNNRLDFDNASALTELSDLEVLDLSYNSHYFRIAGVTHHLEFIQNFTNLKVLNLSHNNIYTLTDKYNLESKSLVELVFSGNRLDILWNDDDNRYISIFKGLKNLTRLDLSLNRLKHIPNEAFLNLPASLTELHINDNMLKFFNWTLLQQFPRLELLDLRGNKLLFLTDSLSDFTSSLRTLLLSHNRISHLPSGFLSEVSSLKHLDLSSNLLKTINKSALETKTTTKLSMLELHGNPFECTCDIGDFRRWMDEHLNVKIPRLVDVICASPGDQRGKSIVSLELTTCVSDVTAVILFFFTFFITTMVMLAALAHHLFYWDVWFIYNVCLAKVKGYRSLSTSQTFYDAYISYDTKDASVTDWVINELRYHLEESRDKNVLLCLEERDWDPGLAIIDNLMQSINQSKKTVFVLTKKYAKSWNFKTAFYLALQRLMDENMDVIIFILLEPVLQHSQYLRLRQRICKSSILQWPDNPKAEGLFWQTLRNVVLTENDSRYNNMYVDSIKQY
How it was run: as §1

[1] = HEK-Blue cells overexpressing human TLR9, stimulated with ODN2006 5 nM, read-out: TLR 9 IC50

SMILES	IC50 (human TLR9) [nM]	IC50 (human TLR9; [1]) [nM]	IC50 (human TLR7) [nM]	IC50 (human TLR8) [nM]
COCCN1C2CCC1CC(N1CCC(c3cc4nc(-c5ccc(S(C)(=O)=O)cc5)n(C)c4cc3F)CC1)C2 (centres unmarked) [Example 257, 6-fluoro-5-(1-(8-(2-methoxyethyl)-8-azabicyclo[3.2.1]octan-3-yl)piperidin-4-yl)-1-methyl-2-(4-(methylsulfonyl)phenyl)-1H-benzo[d]imidazole]	49	49	30700	> 50000
COCCN1C2CCC1CC(N1CCC(c3cc4nc(-c5ccc(S(C)(=O)=O)cc5)n(C)c4cc3F)CC1)C2 (centres unmarked) [Example 258, 6-fluoro-5-(1-(8-(2-methoxyethyl)-8-azabicyclo[3.2.1]octan-3-yl)piperidin-4-yl)-1-methyl-2-(4-(methylsulfonyl)phenyl)-1H-benzo[d]imidazole]	100	100	18800	> 50000
CC(C)CN1CCC(N2CCC(c3ccc4nc(-c5ccc(S(C)(=O)=O)cc5)n(C)c4c3F)CC2)CC1 [Example 259, 7-fluoro-6-(1′-isobutyl-[1,4′-bipiperidin]-4-yl)-1-methyl-2-(4-(methylsulfonyl)phenyl)-1H-benzo[d]imidazole]	500	500	> 50000	> 50000
Cn1c(-c2ccc(S(C)(=O)=O)cc2)nc2ccc(C3CCN(C4CCN(C5CC5)CC4)CC3)c(F)c21 [Example 260, 6-(1′-cyclopropyl-[1,4′-bipiperidin]-4-yl)-7-fluoro-1-methyl-2-(4-(methylsulfonyl)phenyl)-1H-benzo[d]imidazole]	660	660	21500	> 50000
Cn1c(-c2ccc(S(C)(=O)=O)cc2)nc2ccc(C3CCN(C4CCN(CC5CC5)CC4)CC3)c(F)c21 [Example 261, 6-(1′-(cyclopropylmethyl)-[1,4′-bipiperidin]-4-yl)-7-fluoro-1-methyl-2-(4-(methylsulfonyl)phenyl)-1H-benzo[d]imidazole]	150	154	7900	> 50000
Cn1c(-c2ccc(S(C)(=O)=O)cc2)nc2ccc(C3CCN(C4CCN(C5CCC5)CC4)CC3)c(F)c21 [Example 262, 6-(1′-cyclobutyl-[1,4′-bipiperidin]-4-yl)-7-fluoro-1-methyl-2-(4-(methylsulfonyl)phenyl)-1H-benzo[d]imidazole]	170	171	14100	> 50000
Cn1c(-c2ccc(S(C)(=O)=O)cc2)nc2ccc(C3CCN(C4CCN(C5CCOCC5)CC4)CC3)c(F)c21 [Example 264, 7-fluoro-1-methyl-2-(4-(methylsulfonyl)phenyl)-6-(1′-(tetrahydro-2H-pyran-4-yl)-[1,4′-bipiperidin]-4-yl)-1H-benzo[d]imidazole]	280	281	2300	20700
COCCN1CCC(N2CCC(c3ccc4nc(-c5ccc(S(C)(=O)=O)cc5)n(C)c4c3F)CC2)CC1 [Example 265, 7-fluoro-6-(1′-(2-methoxyethyl)-[1,4′-bipiperidin]-4-yl)-1-methyl-2-(4-(methylsulfonyl)phenyl)-1H-benzo[d]imidazole]	1000	1040	7600	> 50000
Cn1c(-c2ccc(S(C)(=O)=O)cc2)nc2ccc(C3CCN(C4CC5CCC(C4)N5CC4CC4)CC3)c(F)c21 (centres unmarked) [Example 268, 6-(1-(8-(cyclopropylmethyl)-8-azabicyclo[3.2.1]octan-3-yl)piperidin-4-yl)-7-fluoro-1-methyl-2-(4-(methylsulfonyl)phenyl)-1H-benzo[d]imidazole]	60	60	27600	> 50000
Cn1c(-c2ccc(S(C)(=O)=O)cc2)nc2ccc(C3CCN(C4CC5CCC(C4)N5CC4CC4)CC3)c(F)c21 (centres unmarked) [Example 269, 6-(1-(8-(cyclopropylmethyl)-8-azabicyclo[3.2.1]octan-3-yl)piperidin-4-yl)-7-fluoro-1-methyl-2-(4-(methylsulfonyl)phenyl)-1H-benzo[d]imidazole]	180	176	12000	21500
Cn1c(-c2ccc(S(C)(=O)=O)cc2)nc2ccc(C3CCN(C4CC5CCC(C4)N5C4COC4)CC3)c(F)c21 (centres unmarked) [Example 273, 7-fluoro-1-methyl-2-(4-(methylsulfonyl)phenyl)-6-(1-(8-(oxetan-3-yl)-8-azabicyclo[3.2.1]octan-3-yl)piperidin-4-yl)-1H-benzo[d]imidazole]	300	303	7500	> 50000
